Measurements reported in EP4699605A1, “USE OF NOVEL COMPOUND FOR TREATING INTRACTABLE DISEASES” (YJ Cerapeutics Inc., priority 2023, dated 2024).

Experiments:
[1] = test system: astrocytes; test: Astrocyte activation in spinal cord of SNI model (GFAP immunohistochemistry and Western blot); format: in vivo, Sprague-Dawley rats; details: L4-5 spinal cord
Procedure: To be used as a peripheral nerve injury animal model, a sciatic nerve injury (SNI) model was prepared (FIG. 1C). Specifically, 200 to 220 g of male adult Sprague-Dawley rats were anesthetized by intraperitoneal injection of chloral hydrate (500 mg/kg), and then three terminal branches (tibial, common peroneal, and sural nerves) of the right sciatic nerve were approached, and the tibia nerve and the peroneal nerve were tightly ligated with 4-0 silk, and neurectomy was performed at a distal 3 mm position of the ligation site. At this time, a Sham group was a group that exposed only the sciatic nerve without damage.
The activation of astrocytes in the spinal cord, known to play an important role in the process of inducing/persisting neuropathic pain, was confirmed by immunohistochemical staining and Western blot analysis using an anti-GFAP antibody against an intermediate filament protein, Glial fibrillary acidic protein (GFAP) of astrocytes, a marker of astrocyte activation, as in Example 3-1.

[2] = test system: JAK/STAT3 pathway; test: Signaling pathway analysis in SNI model (Western blot): JAK/STAT3; format: in vivo, Sprague-Dawley rats; details: 4 weeks after nerve injury
Procedure: To determine through which signaling pathway YJ102 inhibited a neuroinflammatory response, there was analyzed increased expression and activation of histone demethylase JMJD3 and expression changes of factors associated with JAK/STAT3 pathway, mTOR pathway, and TRPM7-mediated pathway, which were known as important regulatory mechanisms and epigenetic regulators mediating the neuroinflammatory response, in the tissues of the SNI animal model 4 weeks after nerve injury.

[3] = test system: ZO-1 and occludin; test: Urothelial tight junction proteins in bladder after SCI (Western blot, immunofluorescence); format: in vivo, Sprague-Dawley rats
From the text: (§1) When bladder dysfunction occurred due to spinal cord injury, cystitis, etc., a decrease in tight junction protein in the urothelium in contact with urine occurred, which increased the permeability of the bladder wall to introduce the harmful substances into the tissue, and caused the death of the urothelium serving as a barrier, and an increase in inflammatory response in the bladder. In order to determine what effect the compound YJ102 of the present disclosure had on these pathological processes, the expression of tight junction proteins ZO-1 and occludin was confirmed by Western blot analysis and immunofluorescence staining, and the introduction of neutrophils and macrophages into the bladder was confirmed by immunofluorescence staining. Specifically, the cut bladder tissue sections were frozen in liquid nitrogen, ground in a mortar and pestle to be completely lysed, and homogenized by adding Lysis Buffer [50 mM Tris-HCl (pH 7.4), 150 mM NaCl, 2 mM MgCl2, 0.1% NP40]. The homogenized tissue sections were transferred to a microcentrifuge tube, rock at 4°C for 20 minutes, and then centrifuged at 25,000 × g for 10 minutes. The supernatant was transferred to a new microcentrifuge, the protein concentrations were measured using a BCA kit, and then samples for Western blot were prepared by adding a 1X sample buffer and boiling for 5 minutes. For Western blot, the same amounts of proteins were loaded onto SDS-PAGE, electrophored, and then transferred to a nitrocellulose membrane, reacted with primary antibodies Occludin (Invitrogen), ZO-1 (Invitrogen), ED-1 (Serotec), and β-actin (Sigma), and then blotted with secondary antibodies. In addition, for immunofluorescence staining, 10 µm-thick bladder tissue sections were treated with primary antibodies ZO-1 (Invitrogen), Occludin (Invitrogen), MPO (DAKO), and ED-1 (Serotec), respectively, and reacted according to a manufacturer's protocol, and then color-developed with secondary antibodies (Jackson immunoresearh).

[4] = test system: neutrophils and macrophages; test: Introduction of neutrophils and macrophages into the bladder after SCI (immunofluorescence); format: in vivo, Sprague-Dawley rats
From the text: as §1, with “For Western blot, the same amounts of proteins were loaded onto SDS-PAGE, electrophored, and then transferred to a nitrocellulose membrane, reacted with primary antibodies Occludin (Invitrogen), ZO-1 (Invitrogen), ED-1 (Serotec), and β-actin (Sigma), and then blotted with secondary antibodies. In addition, for immunofluorescence staining, 10 µm-thick bladder tissue sections were treated with primary antibodies ZO-1 (Invitrogen), Occludin (Invitrogen), MPO (DAKO), and ED-1 (Serotec), respectively, and reacted according to a manufacturer's protocol, and then color-developed with secondary antibodies (Jackson immunoresearh).” left out

[5] = test system: p75 neurotrophin receptor; test: p75 expression in urothelium after SCI (RT-PCR, Western blot); format: in vivo, Sprague-Dawley rats; details: urothelium after spinal cord injury (days 1 and 7)
From the text: The effect of YJ102 on urothelial cell apoptosis in bladder tissue after spinal cord injury was confirmed by TUNEL staining, and the protein levels of cleaved caspase-3 indicating caspase-3 activation, and UPIII as a urothelial marker were confirmed by Western blot analysis using p75 (Promega), cleaved caspase-3 (Cell signaling technology), and UPIII (Abcam) as primary antibodies. In addition, in order to confirm whether the mechanism of apoptosis was caused by a p75 neurotrophin receptor, which was involved in urothelial apoptosis, the expression level of p75 was confirmed by RT-PCR, Western blot analysis, and immunofluorescence staining. For RT-PCR analysis, the obtained bladder tissue sections were frozen in liquid nitrogen, and ground in a mortar and pestle to be completely lysed, and then RNA was isolated using a TRIZOL Reagent (Invitrogen) according to a manual, and 20 µl of the total mixture was prepared by using 1 µg of total RNA, and cDNA was synthesized using MMLV reverse transcriptase (Invitrogen).

[6] = test system: Raw 264.7 cell line; test: Inflammatory factor mRNA in LPS-treated macrophage cell line (RT-PCR); format: cell-based; details: LPS treatment
Procedure: In order to determine whether YJ102 affected the production of proNGF as a ligand of p75, the expression of proNGF in the bladder was confirmed by RT-PCR, Western blot analysis, and immunofluorescence staining. In addition, for further verification, a macrophage cell line Raw 264.7 (Korea Cell Line Bank, Seoul, Korea) was stimulated with 1 µg/ml of LPS, and the effect of YJ102 on the production of proNGF was investigated. At this time, YJ102 was dissolved in DMSO and treated 30 minutes before LPS treatment.
To confirm the effect of YJ102 on the expression of inflammatory factors in the bladder after spinal cord injury, the expression of inflammatory cytokines and chemokines, COX-2, iNOS, IL-6, IL-1β, MIP-1α, MIP-1β, MIP-2α, and Gro-α in bladder tissue was confirmed by RT-PCR analysis and Western blot analysis using the primers in Table 2 above. In addition, even in the Raw 264.7 cell line, the expression was verified by RT-PCR analysis.

[7] = day 1 after spinal cord injury (SCI 1d), Western blot

CCc1ccc(N(C(=O)COC)c2nc3cc(Cl)ccc3o2)cc1 [YJ102]
GFAP expression intensity [1]: significantly decreased
phosphorylation of JAK2 [2]: significantly reducing
phosphorylation of STAT3 [2]: significantly reducing
reduction in Occludin in the urothelium ([3]; after spinal cord injury, immunofluorescence staining): inhibited
reduction of the amount of Occludin [3, 7]: significantly inhibited
reduction of the amount of ZO-1 [3, 7]: significantly inhibited
introduction of MPO-positive neutrophils into the bladder ([4]; after spinal cord injury (day 1)): significantly inhibited
introduction of ED-1-positive macrophages into the bladder ([4]; after spinal cord injury (day 7)): significantly inhibited
p75 expression [5]: significantly reduced
mRNA levels of IL-1β, TNF-α, IL-6, iNOS, and COX-2 [6]: significantly reduced
